Patent US6596709B1, “6-sulphanoyl-3-quinolylphosphonic acid compounds” (Les Laboratoires Servier, priority 2000, dated 2003)
Read-outs that look alike come from different tables or passages of the source.

Columns and labels:
[1] = Journal of Cerebral Blood Flow and Metabolism, 1994, 14, 251-261; cited from earlier work
[2] = Nephrotoxicity of prior-art compounds of EP 0 640 612 found by the Applicant; format: in vivo; conditions: no method given

Compound | Nephrotoxicity [1] | Nephrotoxicity [2]
NS(=O)(=O)c1cccc2c3c(cc([N+](=O)[O-])c12)=NC(=O)C(=O)N=3 [NBQX, 6-nitro-7-sulphamoyl-benzo[f]quinoxaline-2,3-dione] | nephrotoxicity | 
O=c1[nH]c2cc(Cl)c(Cl)cc2cc1P(=O)(O)O [(6,7-dichloro-2-oxo-1,2-dihydro-3-quinolyl)phosphonic acid] |  | serious problems of nephrotoxicity
